The target of this experiment is T1, Recombinant human liver GK1 (GST-GK) (Homo sapiens, UniProt P35557).
T1 construct: made in house; host or cells: E. coli
T1 sequence (P35557 1-466 isoform P35557-2): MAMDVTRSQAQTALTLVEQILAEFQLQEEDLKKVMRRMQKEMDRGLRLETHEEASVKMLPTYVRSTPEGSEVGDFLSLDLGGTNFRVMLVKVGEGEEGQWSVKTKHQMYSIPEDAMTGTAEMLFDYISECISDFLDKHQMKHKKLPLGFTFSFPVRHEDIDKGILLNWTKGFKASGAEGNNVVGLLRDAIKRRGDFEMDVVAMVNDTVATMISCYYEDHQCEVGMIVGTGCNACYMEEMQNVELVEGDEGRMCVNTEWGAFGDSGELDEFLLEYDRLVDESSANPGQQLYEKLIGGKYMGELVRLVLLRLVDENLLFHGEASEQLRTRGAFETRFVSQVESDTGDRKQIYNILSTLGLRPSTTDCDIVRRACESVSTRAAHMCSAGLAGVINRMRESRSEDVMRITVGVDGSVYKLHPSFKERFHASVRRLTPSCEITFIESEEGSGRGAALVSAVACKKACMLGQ
In words: In vitro glucokinase activity assay (G6PDH-coupled, NADH, OD340). The settings on record: for SC1.5: concentration of activator that produced a 50% increase in the activity of GK, 5 mM D-glucose, 30° C. In kind it is biochemical. As to the method: Glucokinase In Vitro Assay Protocol: Glucokinase (GK) was assayed by coupling the production of glucose-6-phosphate to the generation of NADH with glucose-6-phosphate dehydrogenase (G6PDH, 0.75-1 kunits/mg; Boehringer Mannheim, Indianapolis, Ind.) from Leuconostoc mesenteroides as the coupling enzyme (Scheme 2).
Recombinant human liver GK1 was expressed in E. coli as a glutathione S-transferase fusion protein (GST-GK) [Liang et al, 1995] and was purified by chromatography over a glutathione-Sepharose 4B affinity column using the procedure provided by the manufacturer (Amersham Pharmacia Biotech, Piscataway, N.J.).
The assay was conducted at 30° C. in a flat bottom 96-well tissue culture plate from Costar (Cambridge, Mass.) with a final incubation volume of 120 μL. The incubation reaction contained the following: 25 mM Hepes buffer (pH 7.1), 25 mM KCl, 5 mM D-glucose, 1 mM ATP, 1.8 mM NAD, 2 mM MgCl2, 1 μM sorbitol-6-phosphate, 1 mM dithiothreitol, test drug or 10% dimethylsulfoxide, ˜7 units/ml G6PDH, and GK (see below). All organic reagents were >98% pure and were from Boehringer Mannheim with the exceptions of D-glucose and Hepes which were from Sigma Chemical Co, St Louis, Mo. Test compounds were dissolved in dimethylsulfoxide and were added to the incubation reaction minus GST-GK in a volume of 12 μL to yield a final dimethylsulfoxide concentration of 10%. This mix was pre-incubated in the temperature controlled chamber of a SPECTRAmax 250 microplate spectrophotometer (Molecular Devices Corporation, Sunnyvale, Calif.) for 10 minutes to allow temperature equilibrium and then the reaction was started by the addition of 20 μL GST-GK.
After addition of enzyme, the increase in optical density (OD) at 340 nm was monitored spectrophotometrically to determine the rate of change (OD340 per min). The GK activity (OD340/min) in control wells (10% dimethylsulfoxide minus GK activators) was compared with the activity in wells containing test GK activators, and the concentration of activator that produced a 50% increase in the activity of GK, i.e., the SC1.5, was calculated.

These results are taken from patent publication US8222416B2, “Azaindole glucokinase activators” (Hoffmann-La Roche Inc., priority 2009, dated 2012).

On to `CNC(=O)c1cnc2[nH]c([C@H](CC3CCCC3)c3ccc(S(C)(=O)=O)cc3)cc2c1` [Example 6, 2-[2-Cyclopentyl-1(R)-(4-methanesulfonyl-phenyl)-ethyl]-1H-pyrrolo[2,3-b]pyridin-5-carboxylic acid methylamide], for which the SC1.5 is 1.0 µM.

On to `CS(=O)(=O)c1ccc(C(CC2CCCC2)c2cc3cc(C(O)CO)cnc3[nH]2)cc1` (stereo not drawn) [Example 7, 1-{2-[2-Cyclopentyl-1-(4-methanesulfonyl-phenyl)-ethyl]-1H-pyrrolo[2,3-b]pyridin-5-yl}-ethane-1,2-diol], for which the SC1.5 came out at 25.6 µM.

As for `CS(=O)(=O)c1ccc(C(CC2CCCC2)c2cc3cc(CO)cnc3[nH]2)cc1` (stereo not drawn) [Example 8, {2-[2-Cyclopentyl-1-(4-methanesulfonyl-phenyl)-ethyl]-1H-pyrrolo[2,3-b]pyridin-5-yl}-methanol], the SC1.5 came to 3.4 µM. Same read-out and setting: as for `CS(=O)(=O)c1ccc(C(CC2CCCC2)c2cc3cc(CC(O)CO)cnc3[nH]2)cc1` (stereo not drawn) [Example 11, 3-{2-[2-Cyclopentyl-1-(4-methanesulfonyl-phenyl)-ethyl]-1H-pyrrolo[2,3-b]pyridin-5-yl}-propane-1,2-diol], the figure is 7.3 µM; as for `COc1cnc2[nH]c(C(CC3CCCC3)c3ccc(S(C)(=O)=O)cc3)cc2c1` (stereo not drawn) [Example 12, 2-[2-Cyclopentyl-1-(4-methanesulfonyl-phenyl)-ethyl]-5-methoxy-1H-pyrrolo[2,3-b]pyridine], 0.18 µM. With `CN(C)C(=O)COc1cnc2[nH]c(C(CC3CCCC3)c3ccc(S(C)(=O)=O)cc3)cc2c1` (stereo not drawn) [Example 13, 2-{2-[2-Cyclopentyl-1-(4-methanesulfonyl-phenyl)-ethyl]-1H-pyrrolo[2,3-b]pyridin-5-yloxy}-N,N-dimethyl-acetamide], the SC1.5 came to 2.0 µM. Take `COCCOc1cnc2[nH]c(C(CC3CCCC3)c3ccc(S(C)(=O)=O)cc3)cc2c1` (stereo not drawn) [Example 15, 2-[2-Cyclopentyl-1-(4-methanesulfonyl-phenyl)-ethyl]-5-(2-methoxy-ethoxy)-1H-pyrrolo[2,3-b]pyridine]: the SC1.5 is 0.451 µM. Take `CN(C)CCOc1cnc2[nH]c(C(CC3CCCC3)c3ccc(S(C)(=O)=O)cc3)cc2c1` (stereo not drawn) [Example 17, (2-{2-[2-Cyclopentyl-1-(4-methanesulfonyl-phenyl)-ethyl]-1H-pyrrolo[2,3-b]pyridin-5-yloxy}-ethyl)-dimethyl-amine]: the SC1.5 was found to be 3.1 µM. Consider `CC(C)Oc1cnc2[nH]c(C(CC3CCCC3)c3ccc(S(C)(=O)=O)cc3)cc2c1` (stereo not drawn) [Example 18, 2-[2-Cyclopentyl-1-(4-methanesulfonyl-phenyl)-ethyl]-5-isopropoxy-1H-pyrrolo[2,3-b]pyridine], for which the SC1.5 was determined as 0.719 µM.

For the compound `COc1cnc2[nH]c(C(CC3CCCC3)c3ccc(C(F)(F)F)cc3)cc2c1` (stereo not drawn) [Example 20, 2-[2-Cyclopentyl-1-(4-trifluoromethyl-phenyl)-ethyl]-5-methoxy-1H-pyrrolo[2,3b]pyridine], the SC1.5 is 0.693 µM. For `COc1cnc2[nH]c(/C(=C/C3CCCO3)c3ccc(S(C)(=O)=O)cc3)cc2c1` (stereo not drawn) [Example 21, 2-[(E)-1-(4-Methanesulfonyl-phenyl)-2-(tetrahydro-furan-2-yl)-vinyl]-5-methoxy-1H-pyrrolo[2,3-b]pyridine], the SC1.5 is 0.821 µM. Same read-out and setting: with `CCOC(=O)C(C)(C)Oc1cnc2[nH]c(C(CC3CCCC3)c3ccc(S(C)(=O)=O)cc3)cc2c1` (stereo not drawn) [Example 26, 2-{2-[2-Cyclopentyl-1-(4-methanesulfonyl-phenyl)-ethyl]-1H-pyrrolo[2,3-b]pyridin-5-yloxy}-2-methyl-propionic acid ethyl ester] the figure was 2.3 µM; with `CC(C)(Oc1cnc2[nH]c(C(CC3CCCC3)c3ccc(S(C)(=O)=O)cc3)cc2c1)C(=O)O` (stereo not drawn) [Example 27, 2-{2-[2-Cyclopentyl-1-(4-methanesulfonyl-phenyl)-ethyl]-1H-pyrrolo[2,3-b]pyridin-5-yloxy}-2-methyl-propionic acid], 13.5 µM; with `CC(C)(CO)Oc1cnc2[nH]c(C(CC3CCCC3)c3ccc(S(C)(=O)=O)cc3)cc2c1` (stereo not drawn) [Example 28, 2-{2-[2-Cyclopentyl-1-(4-methanesulfonyl-phenyl)-ethyl]-1H-pyrrolo[2,3-b]pyridin-5-yloxy}-2-methyl-propan-1-ol], 2.8 µM. Regarding `CS(=O)(=O)c1ccc(C(CC2CCCC2)c2cc3cc(OCCO)cnc3[nH]2)cc1` (stereo not drawn) [Example 30, 2-{2-[2-Cyclopentyl-1-(4-methanesulfonyl-phenyl)-ethyl]-1H-pyrrolo[2,3-b]pyridin-5-yloxy}-ethanol], the SC1.5 stood at 0.8 µM. Consider `COc1cnc2[nH]c(C(CC3CCOCC3)c3ccc(S(C)(=O)=O)cc3)cc2c1` (stereo not drawn) [Example 31], for which the SC1.5 turned out to be 1.9 µM. Take `COc1cnc2[nH]c(C(CC3CCOCC3)c3ccc(C(F)(F)F)cc3)cc2c1` (stereo not drawn) [Example 33, 5-Methoxy-2-[2-(tetrahydro-pyran-4-yl)-1-(4-trifluoromethyl-phenyl)-ethyl]-1H-pyrrolo[2,3-b]pyridine]: the SC1.5 amounted to 3.0 µM. As for `COc1cnc2[nH]c(C(CC3CCCC3)c3ccc(C(C)(C)O)cc3)cc2c1` (stereo not drawn) [Example 35, 2-{4-[2-Cyclopentyl-1-(5-methoxy-1H-pyrrolo[2,3-b]pyridin-2-yl)-ethyl]-phenyl}-propan-2-ol], the “fold activation of GK” value (at 30 μM) was 1.4 fold at 30.

`CS(=O)(=O)c1ccc(C(CC2CCCC2)c2cc3cc(CCO)cnc3[nH]2)cc1` (stereo not drawn) [Example 36, 2-{2-[2-Cyclopentyl-1-(4-methanesulfonyl-phenyl)-ethyl]-1H-pyrrolo[2,3-b]pyridin-5-yl}-ethanol]: the SC1.5 is 3.4 µM.

Take `CN(C)CC(=O)OCc1cnc2[nH]c(C(CC3CCCC3)c3ccc(S(C)(=O)=O)cc3)cc2c1` (stereo not drawn) [Example 37, Dimethylamino-acetic acid 2-[2-cyclopentyl-1-(4-methanesulfonyl-phenyl)-ethyl]-1H-pyrrolo[2,3-b]pyridin-5-ylmethyl-ester]: the SC1.5 was found to be 4.4 µM. Take `CS(=O)(=O)c1ccc(C(CC2CCCC2)c2cc3cc(CC#N)cnc3[nH]2)cc1` (stereo not drawn) [Example 38, {2-[2-Cyclopentyl-1-(4-methanesulfonyl-phenyl)-ethyl]-1H-pyrrolo[2,3-b]pyridin-5-yl}-acetonitrile]: the SC1.5 amounted to 9.8 µM. For the compound `CN(C)C(=O)Cc1cnc2[nH]c(C(CC3CCCC3)c3ccc(S(C)(=O)=O)cc3)cc2c1` (stereo not drawn) [Example 39, 2-{2-[2-Cyclopentyl-1-(4-methanesulfonyl-phenyl)-ethyl]-1H-pyrrolo[2,3-b]pyridin-5-yl}-N,N-dimethyl-acetamide], the SC1.5 came to 9.1 µM. On the same count and under the same terms, as for `CN(C)CCc1cnc2[nH]c(C(CC3CCCC3)c3ccc(S(C)(=O)=O)cc3)cc2c1` (stereo not drawn) [Example 40, (2-{2-[2-Cyclopentyl-1-(4-methanesulfonyl-phenyl)-ethyl]-1H-pyrrolo[2,3-b]pyridin-5-yl}-ethyl)-dimethyl-amine], the figure is 9.0 µM; as for `COCc1cnc2[nH]c(C(CC3CCCC3)c3ccc(S(C)(=O)=O)cc3)cc2c1` (stereo not drawn) [Example 41, 2-[2-Cyclopentyl-1-(4-methanesulfonyl-phenyl)-ethyl]-5-methoxymethyl-1H-pyrrolo[2,3-b]pyridine], 2.8 µM. For `N#Cc1ccc(C(CC2CCCC2)c2cc3cccnc3[nH]2)cc1` (stereo not drawn) [Example 43, 4-[2-Cyclopentyl-1-(1H-pyrrolo[2,3-b]pyridin-2-yl)-ethyl]-benzonitrile], the SC1.5 turned out to be 1.4 µM. On the same count and under the same terms, as for `COCCCc1cnc2[nH]c(C(CC3CCCC3)c3ccc(S(C)(=O)=O)cc3)cc2c1` (stereo not drawn) [Example 44, 2-[2-Cyclopentyl-1-(4-methanesulfonyl-phenyl)-ethyl]-5-(3-methoxy-propyl)-1H-pyrrolo[2,3-b]pyridine], the figure is 4.3 µM; as for `CS(=O)(=O)c1ccc(C(CC2CCCC2)c2cc3cc(CCCO)cnc3[nH]2)cc1` (stereo not drawn) [Example 45, 3-{2-[2-Cyclopentyl-1-(4-methanesulfonyl-phenyl)-ethyl]-1H-pyrrolo[2,3-b]pyridin-5-yl}-propan-1-ol], 14.9 µM.
